Data on 16 compounds can be found in the NIST ThermoML archive (doi:10.1021/je034265f).

SMILES strings stand for the structures. ± gives the expanded uncertainty stated by the source.

This series can be described thus: activity coefficient (dimensionless); of the first substance listed, at infinite dilution; xn = mol fraction of the nth substance listed. The note with it: Liquid, x1 = 0.

In the case of `CCC` [propane] + CCC(C)O, the activity coefficient by setting is: (249.97 K) 3.6 ± 0.1; (269.99 K) 3.5 ± 0.1; (290 K) 3.5 ± 0.1; (310 K) 3.5 ± 0.1; (330 K) 3.3 ± 0.1.

Turning to `C=C(C)C` [2-methylpropene] + CCC(C)O, the activity coefficient worked out at 3.7 ± 0.1 (249.99 K); 3.5 ± 0.1 (270 K); 3.4 ± 0.1 (290 K); 3.2 ± 0.1 (310 K); 3 ± 0.1 (330 K).

Take `CC(C)C` [2-methylpropane] + CCCCO: the activity coefficient is, setting by setting: (250.01 K) 4.4 ± 0.1; (270.04 K) 4.4 ± 0.1; (290.01 K) 4.3 ± 0.1; (310.01 K) 4.3 ± 0.1; (330 K) 4.1 ± 0.1.

For the compound `C=CCC` [1-butene] + CCCCO, the activity coefficient runs as follows: (250.01 K) 3.5 ± 0.1; (270 K) 3.4 ± 0.1; (290.01 K) 3.4 ± 0.1; (310 K) 3.3 ± 0.1; (330 K) 3.2 ± 0.1.

Take `CCCC` [butane] + CCC(C)O: the activity coefficient by setting is: (249.96 K) 4.2 ± 0.1; (270 K) 4.1 ± 0.1; (290 K) 4 ± 0.1; (310 K) 3.9 ± 0.1; (330 K) 3.6 ± 0.1.

For the compound `C/C=C/C` [(E)-2-butene] + CCCCO, the activity coefficient is, setting by setting: (250.01 K) 3.4 ± 0.1; (270 K) 3.4 ± 0.1; (290.01 K) 3.4 ± 0.1; (310 K) 3.3 ± 0.1; (330 K) 3.3 ± 0.1.

As for `C=CC` [propene] + CCC(C)O, the activity coefficient is 3.1 ± 0.1 (249.97 K); 3.1 ± 0.1 (269.99 K); 3.1 ± 0.1 (290 K); 3 ± 0.1 (310 K); 2.8 ± 0.1 (330 K).

Regarding `C=CC=C` [1,3-butadiene] + CCCCO, the activity coefficient (250.01 K) was found to be 3 ± 0.1; the activity coefficient (270.04 K) was determined as 2.9 ± 0.1; the activity coefficient (290.01 K) was determined as 2.9 ± 0.1; the activity coefficient (310.01 K) came out at 2.9 ± 0.1; the activity coefficient (330 K) was 2.8 ± 0.1.

As to `C=C(C)C` [2-methylpropene] + CCCCO, the activity coefficient runs as follows: (250.01 K) 3.4 ± 0.1; (270.04 K) 3.4 ± 0.1; (290.01 K) 3.4 ± 0.1; (310.01 K) 3.3 ± 0.1; (330 K) 3.2 ± 0.1.

For the compound `CCCC` [butane] + CCCCO, the activity coefficient (250.01 K) worked out at 4.1 ± 0.1; the activity coefficient (270.04 K) is 4.1 ± 0.1; the activity coefficient (290.01 K) was 4.1 ± 0.1; the activity coefficient (310.01 K) amounted to 4 ± 0.1; the activity coefficient (330 K) came to 3.9 ± 0.1.

For the compound `C=CC=C` [1,3-butadiene] + CCC(C)O, the activity coefficient runs as follows: (249.99 K) 3.5 ± 0.1; (270 K) 3.4 ± 0.1; (290 K) 3.2 ± 0.1; (310 K) 3 ± 0.1; (330 K) 2.8 ± 0.1.

As to `CCC` [propane] + CCCCO, the activity coefficient was determined as 3.6 ± 0.1 (250.01 K); 3.6 ± 0.1 (270 K); 3.6 ± 0.1 (290.01 K); 3.6 ± 0.1 (310 K); 3.6 ± 0.1 (330 K).

As to `C/C=C/C` [(E)-2-butene] + CCC(C)O, the activity coefficient reads like this: (249.97 K) 3.7 ± 0.1; (269.99 K) 3.6 ± 0.1; (290 K) 3.5 ± 0.1; (310 K) 3.3 ± 0.1; (330 K) 3.1 ± 0.1.

In the case of `C=CC` [propene] + CCCCO, the activity coefficient by setting is: (249.99 K) 3 ± 0.1; (270 K) 3 ± 0.1; (290.01 K) 3 ± 0.1; (310 K) 3 ± 0.1; (330 K) 3 ± 0.1.

As to `CC(C)C` [2-methylpropane] + CCC(C)O, the activity coefficient is 4.4 ± 0.1 (249.97 K); 4.3 ± 0.1 (270 K); 4.2 ± 0.1 (290 K); 4.1 ± 0.1 (310 K); 3.8 ± 0.1 (330 K).

With `C=CCC` [1-butene] + CCC(C)O, the activity coefficient is 3.7 ± 0.1 (249.97 K); 3.6 ± 0.1 (269.99 K); 3.5 ± 0.1 (290 K); 3.3 ± 0.1 (310 K); 3.1 ± 0.1 (330 K).
